Source: PubChem BioAssay (NCI)
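Here, GI50 denotes the concentration required for 50% inhibition of growth. Definition used: TGI = concentration required for complete inhibition of growth.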

Assays:
Experiment in all cases: NCI-60 cell line screen, 384-well format
CAKI-1 renal = test system: CAKI-1 renal
DU-145 prostate = test system: DU-145 prostate
COLO 205 colon = test system: COLO 205 colon
HCC-2998 colon = test system: HCC-2998 colon
IGROV1 ovarian = test system: IGROV1 ovarian
HOP-62 NSCLC = test system: HOP-62 NSCLC
NCI-H23 lung = test system: NCI-H23 lung
HCT-15 colon = test system: HCT-15 colon
NCI-H460 NSCLC = test system: NCI-H460 NSCLC
HT29 colon = test system: HT29 colon
TK-10 renal = test system: TK-10 renal
ACHN renal = test system: ACHN renal
SK-MEL-28 melanoma = test system: SK-MEL-28 melanoma
A549 NSCLC = test system: A549 NSCLC
OVCAR-8 ovarian = test system: OVCAR-8 ovarian
SF-268 CNS = test system: SF-268 CNS
LOX IMVI melanoma = test system: LOX IMVI melanoma
SNB-75 CNS = test system: SNB-75 CNS
HS 578T breast = test system: HS 578T breast
UACC-62 melanoma = test system: UACC-62 melanoma
786-0 renal = test system: 786-0 renal
SK-MEL-5 melanoma = test system: SK-MEL-5 melanoma
SF-295 CNS = test system: SF-295 CNS
NCI-H522 lung = test system: NCI-H522 lung
MOLT-4 leukemia = test system: MOLT-4 leukemia
SF-539 CNS = test system: SF-539 CNS
SN12C renal = test system: SN12C renal
MDA-MB-468 breast = test system: MDA-MB-468 breast
OVCAR-4 ovarian = test system: OVCAR-4 ovarian
CCRF-CEM leukemia = test system: CCRF-CEM leukemia
NCI/ADR-RES ovarian = test system: NCI/ADR-RES ovarian
SNB-19 CNS = test system: SNB-19 CNS
HOP-92 NSCLC = test system: HOP-92 NSCLC
M14 melanoma = test system: M14 melanoma
NCI-H322M lung = test system: NCI-H322M lung
UACC-257 melanoma = test system: UACC-257 melanoma
OVCAR-3 ovarian = test system: OVCAR-3 ovarian
U251 glioblastoma = test system: U251 glioblastoma
MCF7 breast = test system: MCF7 breast
RPMI-8226 leukemia = test system: RPMI-8226 leukemia
KM12 colon = test system: KM12 colon
A498 renal = test system: A498 renal
RXF 393 renal = test system: RXF 393 renal
HCT-116 colon = test system: HCT-116 colon
SK-OV-3 ovarian = test system: SK-OV-3 ovarian
HL-60(TB) leukemia = test system: HL-60(TB) leukemia
SK-MEL-2 melanoma = test system: SK-MEL-2 melanoma
MALME-3M melanoma = test system: MALME-3M melanoma
EKVX NSCLC = test system: EKVX NSCLC
SW-620 colon = test system: SW-620 colon
MDA-MB-435 melanoma = test system: MDA-MB-435 melanoma
NCI-H226 lung = test system: NCI-H226 lung
BT-549 breast = test system: BT-549 breast
PC-3 prostate = test system: PC-3 prostate
K-562 leukemia = test system: K-562 leukemia

Nc1cc2c(cc1Cl)C(=O)c1ccccc1C2=O
GI50 (CAKI-1 renal): 13.2 µM | TGI (CAKI-1 renal): 26.3 µM | GI50 (DU-145 prostate): 14.3 µM | TGI (DU-145 prostate): 29 µM | GI50 (COLO 205 colon): 10.4 µM | TGI (COLO 205 colon): 22.6 µM | GI50 (HCC-2998 colon): 11 µM | TGI (HCC-2998 colon): > 100 µM | GI50 (IGROV1 ovarian): 1.33 µM | TGI (IGROV1 ovarian): 17.9 µM | GI50 (HOP-62 NSCLC): 2.34 µM | TGI (HOP-62 NSCLC): 4.24 µM | GI50 (NCI-H23 lung): 2.65 µM | TGI (NCI-H23 lung): 11.3 µM | GI50 (HCT-15 colon): 15 µM | TGI (HCT-15 colon): 32.3 µM | GI50 (NCI-H460 NSCLC): 3.76 µM | TGI (NCI-H460 NSCLC): 13.9 µM | GI50 (HT29 colon): 26 µM | TGI (HT29 colon): > 100 µM | GI50 (TK-10 renal): 2.63 µM | TGI (TK-10 renal): 12.9 µM | GI50 (ACHN renal): 2.47 µM | TGI (ACHN renal): 12.7 µM | GI50 (SK-MEL-28 melanoma): 17.8 µM | TGI (SK-MEL-28 melanoma): 42.2 µM | GI50 (A549 NSCLC): 6.15 µM | TGI (A549 NSCLC): 19.9 µM | GI50 (OVCAR-8 ovarian): 4.16 µM | TGI (OVCAR-8 ovarian): 13.8 µM | GI50 (SF-268 CNS): 11.6 µM | TGI (SF-268 CNS): 24 µM | GI50 (LOX IMVI melanoma): 0.276 µM | TGI (LOX IMVI melanoma): 16.4 µM | GI50 (SNB-75 CNS): 2.92 µM | TGI (SNB-75 CNS): 7.13 µM | GI50 (HS 578T breast): 4.51 µM | TGI (HS 578T breast): 15.8 µM | GI50 (UACC-62 melanoma): 7.21 µM | TGI (UACC-62 melanoma): 20.9 µM | GI50 ([…]-0 renal): 2.35 µM | TGI (786-0 renal): 8.08 µM | GI50 (SK-MEL-5 melanoma): 3.59 µM | TGI (SK-MEL-5 melanoma): 50.6 µM | GI50 (SF-295 CNS): 2.86 µM | TGI (SF-295 CNS): 9.19 µM | GI50 (NCI-H522 lung): 10.2 µM | TGI (NCI-H522 lung): 21.9 µM | GI50 (MOLT-4 leukemia): 23.8 µM | TGI (MOLT-4 leukemia): 83.7 µM | GI50 (SF-539 CNS): 1.66 µM | TGI (SF-539 CNS): 3.06 µM | GI50 (SN12C renal): 4.44 µM | TGI (SN12C renal): 16.9 µM | GI50 (MDA-MB-468 breast): 0.228 µM | TGI (MDA-MB-468 breast): 9.07 µM | GI50 (OVCAR-4 ovarian): 1.1 µM | TGI (OVCAR-4 ovarian): 9.47 µM | GI50 (CCRF-CEM leukemia): 71 µM | TGI (CCRF-CEM leukemia): > 100 µM | GI50 (NCI/ADR-RES ovarian): 4.35 µM | TGI (NCI/ADR-RES ovarian): 17.5 µM | GI50 (SNB-19 CNS): 3.59 µM | TGI (SNB-19 CNS): 12.8 µM | GI50 (HOP-92 NSCLC): 3.85 µM | TGI (HOP-92 NSCLC): 13.7 µM | GI50 (M14 melanoma): 14.2 µM | TGI (M14 melanoma): 30.4 µM | GI50 (NCI-H322M lung): 6.15 µM | TGI (NCI-H322M lung): 24 µM | GI50 (UACC-257 melanoma): 17.6 µM | TGI (UACC-257 melanoma): 52 µM | GI50 (OVCAR-3 ovarian): 6.94 µM | TGI (OVCAR-3 ovarian): 20.4 µM | GI50 (U251 glioblastoma): 3.21 µM | TGI (U251 glioblastoma): 11 µM | GI50 (MCF7 breast): 11.1 µM | TGI (MCF7 breast): 23.3 µM | GI50 (RPMI-8226 leukemia): 3.13 µM | TGI (RPMI-8226 leukemia): 12 µM | GI50 (KM12 colon): 11.1 µM | TGI (KM12 colon): 24 µM | GI50 (A498 renal): 2.18 µM | TGI (A498 renal): 5.32 µM | GI50 (RXF 393 renal): 4.01 µM | TGI (RXF 393 renal): 15 µM | GI50 (HCT-116 colon): 3.1 µM | TGI (HCT-116 colon): 12.3 µM | GI50 (SK-OV-3 ovarian): 4.81 µM | TGI (SK-OV-3 ovarian): 18.4 µM | GI50 (HL-60(TB) leukemia): > 100 µM | TGI (HL-60(TB) leukemia): > 100 µM | GI50 (SK-MEL-2 melanoma): 2.56 µM | TGI (SK-MEL-2 melanoma): 7.19 µM | GI50 (MALME-3M melanoma): 17.2 µM | TGI (MALME-3M melanoma): 47.8 µM | GI50 (EKVX NSCLC): 6.17 µM | TGI (EKVX NSCLC): 20.6 µM | GI50 (SW-620 colon): 11.8 µM | TGI (SW-620 colon): 25.1 µM | GI50 (MDA-MB-435 melanoma): 19.9 µM | TGI (MDA-MB-435 melanoma): 44.3 µM | GI50 (NCI-H226 lung): 1.86 µM | TGI (NCI-H226 lung): 17 µM | GI50 (BT-549 breast): 2.67 µM | TGI (BT-549 breast): 8.24 µM | GI50 (PC-3 prostate): 10.1 µM | TGI (PC-3 prostate): 22 µM | GI50 (K-562 leukemia): 24.9 µM | TGI (K-562 leukemia): 74.7 µM
